Reference: patent US6258806A, “Amine derivatives of oxo- and hydroxy- substituted hydrocarbons” (Narhex Limited, priority 1992, dated 2001)

What was measured:
[1] = tested on: Human Immunodeficiency Virus type 1 (HIV) strain #237228 in MT2 cells; assay: Anti-HIV-1 antiviral activity in acutely infected MT2 cells (CPE and RT activity); type: cell-based; details: for IC80: Human immunodeficiency virus 1, printed in the IC100 column with footnote (b) IC80; for antiviral index (Al), MT2 cells: only non-toxic concentrations used, 8640 min; for IC100: Human immunodeficiency virus 1, 144 h, acute HIV-1 infection, day 6, concentration at which virus replication is inhibited (CPE negative or ±, >95% inhibition of RT activity)
Source text: (§1) The antiviral activity of representative compounds of the present invention has been determined at the Antivirals Laboratory, Fairfield Hospital, Fairfield, Victoria, Australia. In this test a stock solution of each compound was made in DMSO, then diluted in culture medium (RF 10) to 2× the final concentration required for test. The final concentration of DMSO was 1% or below. Approximately 250,000 continuous lymphocytes of human origin (MT2 cells) or 750,000 human peripheral blood lymphocytes (PBLs) were exposed to dilutions of each test compound, then immediately infected with Human Immunodeficiency Virus type 1 (HIV) strain #237228 (a clinical isolate obtained from a human source). The infectivity titers were expressed as tissue culture 50% infective dose (TCID50 per ml) with 1 TCID50 corresponding to the amount of supernatant required to infect 50% of the replicate cell cultures. The 250 and 200 TCID50 were used for MT2 and PBL cells respectively. The cell/drug/virus mixture was then incubated at 37° C./CO2 in a 24-well microtitre plate. Fresh amounts of the appropriate dilution of each drug were added to both MT2 and PBL cultures at day 3. At day 6, the extent of HIV-specific cytopathic effects (CPE) associated with each concentration of test compound in each of the cultures was rated according to the following scale:
(§2) 4+: 75-100% of cells showing 3+: good CPE
(§3) 3+: 50-75% of cells showing 2+: moderate CPE
(§4) 2+: 25-50% of cells showing 1+: low CPE
(§5) 1+: 5-25% of cells showing trace: minimal CPE
(§6) +/-: less than 5% CPE Negative: no CPE
(§7) The activity of the compounds at each concentration was also assessed by their ability to inhibit viron-associated reverse transcriptase (RT) activity in the culture supernates. At the time of rating of CPE, supernatant fluids from each well were removed and RT activity measured using a standard assay. CPE ratings of negative, ± (in MT2 cells) or trace (in PBLs), with greater than 95% inhibition of RT activity, was considered to represent IC100 (the concentration of compound at which the virus replication is inhibited). Control cultures included in each test were:
(§8) (a) HIV-infected cells in the absence of test compound.
(§9) (b) Uninfected cells in the absence of tested compound.
(§10) (c) Cell toxicity control consisting of uninfected cells treated with dilutions of test compound.
(§11) At the conclusion of each experiment, viable cells in these cultures, as determined by tryptan blue exclusion, were compared with the counts obtained in (b), above.

[2] = tested on: Human Immunodeficiency Virus type 1 (HIV) strain #237228 in human peripheral blood lymphocytes (PBLs); assay: Anti-HIV-1 antiviral activity in acutely infected peripheral blood lymphocytes (CPE and RT activity); type: cell-based, Human Immunodeficiency Virus type 1 (HIV); human cells; details: for IC100: Human immunodeficiency virus 1, 144 h, PBL cells, acute HIV-1 infection, day 6, concentration at which virus replication is inhibited (CPE negative or trace, >95% inhibition of RT activity); for antiviral index (Al), PBL cells: only non-toxic concentrations used, 8640 min
Source text: as §1, §2, §3, §4, §5, §6, §7, §8, §9, §10, §11

| SMILES | IC80 [1] [µM] | antiviral index (Al), MT2 cells [1] | IC100 [2] [µM] | antiviral index (Al), PBL cells [2] | IC50 ([1]; Human immunodeficiency virus 1, printed in the IC100 column with footnote (a) IC50) [µM] | IC100 [1] [µM] |
| --- | --- | --- | --- | --- | --- | --- |
| CC(C)(C)OC(=O)N1CC2CCCCC2CN1C[C@H](O)[C@H](Cc1ccccc1)NC(=O)[C@H](CC(N)=O)NC(=O)c1ccc2ccccc2n1 (single isomer, unassigned) [Compound 2b.A] | 0.01 | 100 | 0.01 | 1000 | – | – |
| CC(C)(C)OC(=O)N1CC2CCCCC2CN1CC(O)[C@H](Cc1ccccc1)NC(=O)OCc1ccccc1 (stereo partly drawn) [Compound 1, cis-1,6-3-t-Butoxycarbonyl-4-[(2RS,3S)-2-hydroxy-3-(phenylmethoxycarbonyl)amino-4-phenylbutyl]-3,4-diaza-bicyclo-[4.4.0]decane] | – | 1 | – | – | 10 | – |
| CC(C)(C)OC(=O)N1CC2CCCCC2CN1C[C@H](O)[C@H](Cc1ccccc1)NC(=O)[C@H](CC(N)=O)NC(=O)c1ccc2ccccc2n1 (stereo partly drawn) [Compound 2b, cis-1,6-3-t-Butoxycarbonyl-4-[(2S, 3S)-2-hydroxy-3-(N-quinaldyl-L-asparaginyl)amino-4-phenylbutyl]-3,4-diaza-bicyclo[4.4.0]decane] | – | 50 | 0.1 | 100 | – | 0.1 |
| CC(C)[C@H](NC(=O)c1ccc2ccccc2n1)C(=O)N[C@@H](Cc1ccccc1)C(O)CN1CC2CCCCC2CN1C(=O)OC(C)(C)C (stereo partly shown) [Compound 3] | – | 5 | 1 | 5 | – | 1 |
| CC(C)(C)OC(=O)N1CC2CCCCC2CN1CC(O)[C@H](Cc1ccccc1)NC(=O)[C@H](CCC(N)=O)NC(=O)c1ccc2ccccc2n1 (stereo partly drawn) [Compound 4, cis-1,6-3-t-Butoxycarbonyl-4-[(2RS,3S)-2-hydroxy-3-(N-quinaldyl-L-glutaminyl)amino-4-phenylbutyl]-3,4-diaza-bicyclo[4.4.0]decane] | – | 10 | 1 | 10 | – | 1 |
| C[C@@H](O)[C@H](NC(=O)c1ccc2ccccc2n1)C(=O)N[C@@H](Cc1ccccc1)C(O)CN1CC2CCCCC2CN1C(=O)OC(C)(C)C (stereo partly drawn) [Compound 5, cis-1,6-3-t-Butoxycarbonyl-4-[(2RS,3S)-2-hydroxy-3-(N-quinaldyl-L-threonyl)amino-4-phenylbutyl]-3,4-diaza-bicyclo[4.4.0]decane] | – | < 10 | 1 | < 10 | – | 1 |
| CC(C)[C@H](NC(=O)OCc1ccccn1)C(=O)N[C@@H](Cc1ccccc1)C(O)CN1CC2CCCCC2CN1C(=O)OC(C)(C)C (stereo partly drawn) [Compound 6, cis-1,6-3-t-Butoxycarbonyl-4-[(2RS,3S)-2-hydroxy-3-[N-(2-pyridyl)methoxycarbonyl-L-valyl]amino-4-phenylbutyl]-3,4-diaza-bicyclo[4.4.0]decane] | – | < 5 | 1 | < 5 | – | 1 |
| CC(C)[C@H](NC(=O)c1ccc2ccccc2n1)C(=O)N[C@@H](Cc1ccccc1)[C@H](O)CN(NC(=O)OC(C)(C)C)C(C)C [Compound 9, t-Butyl 3-Isopropyl-3-[(2R,3S)-2-hydroxy-3-(N-quinaldyl-L-valyl)amino-4-phenylbutyl]carbazate] | – | 4 | – | – | – | 5 |
| CC(CCc1ccccc1)N(C[C@@H](O)[C@H](Cc1ccccc1)NC(=O)[C@H](CC(N)=O)NC(=O)c1ccc2ccccc2n1)NC(=O)OC(C)(C)C (stereo partly shown) [Compound 12] | 1 | 10 | – | – | – | – |
| CC(C)N(C[C@H](O)[C@H](Cc1ccccc1)NC(=O)[C@H](CC(N)=O)NC(=O)c1ccc2ccccc2n1)NC(=O)C(C)(C)C [Compound 13, 1-Trimethylacetyl-2-[(2S,3S)-2-hydroxy-3-(N-quinaldyl-L-asparaginyl)amino-4-phenylbutyl]-2-isopropylhydrazine] | – | 50 | 1 | > 50 | – | 1 |
